Measured values taken from article PMC7057333 (ACS Omega, 2020).
Where two headings read alike, the source gives them in different places. Bridge positions count the residues as written; N and C are the ends. Square brackets hold non-standard residues; d marks the D form. Peptide text beside a SMILES is read from it. Cit = NC(=O)NCCC[C@H](N)C(=O)O

Assays:
[1] = target: T1, LSD1 (Homo sapiens, UniProt O60341); assay: HRP-coupled fluorescence LSD1 demethylation activity and inhibition assay, substrate H3_1-21 K4(Me); assay type: biochemical; conditions: for mode of inhibition / inhibition of LSD1 (in words): enzyme activity assay; for mode of inhibition: inhibition kinetics; for Km: Tris buffer pH 8.0
T1 construct: made in house; host or cells: Escherichia coli Rosetta 2 (pET15b)

[2] = target: T1, LSD1; assay: SPR biosensor interaction kinetic assay with immobilized LSD1 (15 °C, TBS-T with DTT); assay type: binding
[3] = 100 μM, supplement sheet SMILES and Activity, read-out: Inhibition at 100 μM (%)
[4] = read-out: % inhibition at 100 μM
[5] = supplement sheet SMILES and Activity, read-out: IC50

Compound | inhibition at 100 µM [1, 3] [%] | inhibition at 100 µM [1, 4] [%] | IC50 [1, 5] [µM] | also measured
CSCC[C@@H]1NC(=O)[C@H](NC(=O)[C@H](CCCNC(=N)N)NC(=O)[C@H](C)N)CCC/C=C\CCC[C@@H](C(=O)N[C@@H](C)C(=O)N[C@@H](CCCNC(=N)N)C(=O)N[C@@H](CCCCN)C(=O)N[C@@H](CO)C(=O)N[C@H](C(N)=O)[C@@H](C)O)NC(=O)[C@H](CCC(N)=O)NC1=O (relative stereo) [Peptide 24, AR*G^penMQG^penARKST-NH2] | 95 | 95 | – | mode of inhibition [1]: competitive inhibitor
CSCC[C@@H]1NC(=O)[C@H](NC(=O)[C@H](CCCNC(=N)N)NC(=O)[C@H](C)N)CCC/C=C\CCC[C@H](C(=O)N[C@@H](C)C(=O)N[C@@H](CCCNC(=N)N)C(=O)N[C@@H](CCCCN)C(=O)N[C@@H](CO)C(=O)N[C@H](C(N)=O)[C@@H](C)O)NC(=O)[C@H](CCC(N)=O)NC1=O (relative stereo) [Peptide 26, AR*G^penMQ*G^penARKST-NH2] | 100 | 90 | – | –
CSCC[C@@H]1NC(=O)[C@H](NC(=O)[C@H](CCCNC(=N)N)NC(=O)[C@H](C)N)CCCCNC(=O)CC[C@@H](C(=O)N[C@@H](C)C(=O)N[C@@H](CCCNC(=N)N)C(=O)N[C@@H](CCCCN)C(=O)N[C@@H](CO)C(=O)N[C@H](C(N)=O)[C@@H](C)O)NC(=O)[C@H](CCC(N)=O)NC1=O (relative stereo) [Peptide 31] | 100 | 100 | 5.3 | Ki [1]: 2.3 µM; mode of inhibition [1]: competitive inhibitor
CSCC[C@H](NC(=O)[C@@H](NC(=O)[C@H](CCCNC(=N)N)NC(=O)[C@H](C)N)[C@@H](C)O)C(=O)N[C@@H](CCC(N)=O)C(=O)N[C@H](C(=O)N[C@@H](C)C(=O)N[C@@H](CCCNC(=N)N)C(=O)N[C@@H](CCCCN)C(=O)N[C@@H](CO)C(=O)N[C@H](C(=O)NCC(=O)NCC(=O)N[C@@H](CCCCN)C(=O)N[C@@H](C)C(=O)O)[C@@H](C)O)[C@@H](C)O [Peptide 2] | – | – | – | Kd [2]: 5 µM
CSCC[C@H](NC(=O)[C@@H](NC(=O)[C@H](CCCNC(=N)N)NC(=O)[C@H](C)N)[C@@H](C)O)C(=O)N[C@@H](CCC(N)=O)C(=O)N[C@H](C(=O)N[C@@H](C)C(=O)N[C@@H](CCCNC(=N)N)C(=O)N[C@@H](CCCCN)C(=O)O)[C@@H](C)O [Peptide 5] | – | – | – | Kd [2]: > 200 µM
C=CC[C@H](NC(=O)[C@H](CCCNC(=N)N)NC(=O)[C@@H](N)CC=C)C(=O)N[C@@H](CCSC)C(=O)N[C@@H](CCC(N)=O)C(=O)N[C@H](C(=O)N[C@@H](C)C(=O)N[C@@H](CCCNC(=N)N)C(=O)N[C@@H](CCCCN)C(=O)N[C@@H](CO)C(=O)N[C@H](C(N)=O)[C@@H](C)O)[C@@H](C)O [Peptide 18] | 98 | 98 | – | IC50 [1]: 5 µM
CSCC[C@H](NC(=O)[C@@H]1C/C=C\C[C@H](N)C(=O)N[C@@H](CCCNC(=N)N)C(=O)N1)C(=O)N[C@@H](CCC(N)=O)C(=O)N[C@H](C(=O)N[C@@H](C)C(=O)N[C@@H](CCCNC(=N)N)C(=O)N[C@@H](CCCCN)C(=O)N[C@@H](CO)C(=O)N[C@H](C(N)=O)[C@@H](C)O)[C@@H](C)O [Peptide 19] | 100 | 100 | – | –
C=CC[C@H](NC(=O)[C@H](CCC(N)=O)NC(=O)[C@H](CCSC)NC(=O)[C@H](CC=C)NC(=O)[C@H](CCCNC(=N)N)NC(=O)[C@H](C)N)C(=O)N[C@@H](C)C(=O)N[C@@H](CCCNC(=N)N)C(=O)N[C@@H](CCCCN)C(=O)N[C@@H](CO)C(=O)N[C@H](C(N)=O)[C@@H](C)O [Peptide 20, ARG^alyMQG^alyARKST-NH2] | 95 | 95 | – | –
C=CCCC[C@H](NC(=O)[C@H](CCC(N)=O)NC(=O)[C@H](CCSC)NC(=O)[C@H](CCCC=C)NC(=O)[C@H](CCCNC(=N)N)NC(=O)[C@H](C)N)C(=O)N[C@@H](C)C(=O)N[C@@H](CCCNC(=N)N)C(=O)N[C@@H](CCCCN)C(=O)N[C@@H](CO)C(=O)N[C@H](C(N)=O)[C@@H](C)O [Peptide 22, ARG^penMQG^penARKST-NH2] | 100 | 100 | – | –
CSCC[C@@H]1NC(=O)[C@@H](NC(=O)[C@H](CCCNC(=N)N)NC(=O)[C@H](C)N)CCC/C=C\CCC[C@@H](C(=O)N[C@@H](C)C(=O)N[C@@H](CCCNC(=N)N)C(=O)N[C@@H](CCCCN)C(=O)N[C@@H](CO)C(=O)N[C@H](C(N)=O)[C@@H](C)O)NC(=O)[C@H](CCC(N)=O)NC1=O [Peptide 23, ARG^penMQG^penARKST-NH2] | 75 | 75 | – | –
CSCC[C@@H]1NC(=O)[C@@H](NC(=O)[C@H](CCCNC(=N)N)NC(=O)[C@H](C)N)CCC/C=C\CCC[C@H](C(=O)N[C@@H](C)C(=O)N[C@@H](CCCNC(=N)N)C(=O)N[C@@H](CCCCN)C(=O)N[C@@H](CO)C(=O)N[C@H](C(N)=O)[C@@H](C)O)NC(=O)[C@H](CCC(N)=O)NC1=O [Peptide 25, ARG^penMQ*G^penARKST-NH2] | 95 | 95 | – | –
CSCC[C@@H]1NC(=O)[C@@H](NC(=O)[C@H](CCCNC(=N)N)NC(=O)[C@H](C)N)CCC(=O)NCCCC[C@@H](C(=O)N[C@@H](C)C(=O)N[C@@H](CCCNC(=N)N)C(=O)N[C@@H](CCCCN)C(=O)N[C@@H](CO)C(=O)N[C@H](C(N)=O)[C@@H](C)O)NC(=O)[C@H](CCC(N)=O)NC1=O [Peptide 28] | 98 | 98 | 12 | Ki [1]: 4 µM; mode of inhibition [1]: competitive inhibitor
CSCC[C@@H]1NC(=O)[C@@H](NC(=O)[C@H](CCCNC(=N)N)NC(=O)[C@H](C)N)CCC(=O)NCCCC[C@@H](C(=O)N[C@@H](C)C(=O)N[C@@H](CCCNC(N)=O)C(=O)N[C@@H](CCCCN)C(=O)N[C@@H](CO)C(=O)N[C@H](C(N)=O)[C@@H](C)O)NC(=O)[C@H](CCC(N)=O)NC1=O [Peptide 34] (H-AREMQKA[Cit]KST-NH2; lactam 3-6) | 97 | 97 | 14 | Ki [1]: 8 µM
H3_1-21 K4(Me): N-terminal 21 amino acids of histone H3, mono-N-methylated at Lys4; LSD1 substrate [reference compound] | – | – | – | kcat ([1]; substrate of LSD1, 50 mM NaCl): 0.6 s^–1; Km ([1]; substrate of LSD1, 50 mM NaCl): 20 µM; Km ([1]; substrate of LSD1, 150 mM NaCl): 80 µM; Km ([1]; substrate of LSD1, without added NaCl): 10 µM

The next lines start with results.

inhibition at 100 µM [1, 3] [%] | inhibition at 100 µM [1, 4] [%] | IC50 [1, 5] [µM] | Compound | also measured
– | < 20 | – | CSCC[C@@H]1NC(=O)[C@H](NC(=O)[C@H](CCCNC(=N)N)NC(=O)[C@H](C)N)CCC(=O)NCCCC[C@@H](C(=O)N[C@@H](C)C(=O)N[C@@H](CCCNC(=N)N)C(=O)N[C@@H](CCCCN)C(=O)N[C@@H](CO)C(=O)N[C@H](C(N)=O)[C@@H](C)O)NC(=O)[C@H](CCC(N)=O)NC1=O (relative stereo) [Peptide 32] | Ki ([1]; read-out: Ki): > 100 µM
65 | 65 | 62 | CSCC[C@@H]1NC(=O)[C@@H](NC(=O)[C@H](CCCNC(=N)N)NC(=O)[C@H](C)N)CCCCNC(=O)CC[C@@H](C(=O)N[C@@H](C)C(=O)N[C@@H](CCCNC(=N)N)C(=O)N[C@@H](CCCCN)C(=O)N[C@@H](CO)C(=O)N[C@H](C(N)=O)[C@@H](C)O)NC(=O)[C@H](CCC(N)=O)NC1=O [Peptide 27] | Ki ([1]; read-out: Ki): 31 µM
90 | 90 | 14 | CSCC[C@@H]1NC(=O)[C@@H](NC(=O)[C@H](CCCNC(=N)N)NC(=O)[C@@H]2CCCN2)CCCCNC(=O)CC[C@@H](C(=O)N[C@@H](C)C(=O)N[C@@H](CCCNC(=N)N)C(=O)N[C@@H](CCCCN)C(=O)N[C@@H](CO)C(=O)N[C@H](C(N)=O)[C@@H](C)O)NC(=O)[C@H](CCC(N)=O)NC1=O [Peptide 29] (H-PRKMQEARKST-NH2; lactam 3-6) | Ki ([1]; read-out: Ki): 7 µM
75 | 75 | 44 | CSCC[C@@H]1NC(=O)[C@@H](NC(=O)[C@H](CCCNC(=N)N)NC(=O)[C@@H]2CCCN2)CCC(=O)NCCCC[C@@H](C(=O)N[C@@H](C)C(=O)N[C@@H](CCCNC(=N)N)C(=O)N[C@@H](CCCCN)C(=O)N[C@@H](CO)C(=O)N[C@H](C(N)=O)[C@@H](C)O)NC(=O)[C@H](CCC(N)=O)NC1=O [Peptide 30] (H-PREMQKARKST-NH2; lactam 3-6) | Ki ([1]; read-out: Ki): 22 µM
97 | 97 | 13 | CSCC[C@@H]1NC(=O)[C@@H](NC(=O)[C@H](CCCNC(N)=O)NC(=O)[C@H](C)N)CCC(=O)NCCCC[C@@H](C(=O)N[C@@H](C)C(=O)N[C@@H](CCCNC(=N)N)C(=O)N[C@@H](CCCCN)C(=O)N[C@@H](CO)C(=O)N[C@H](C(N)=O)[C@@H](C)O)NC(=O)[C@H](CCC(N)=O)NC1=O [Peptide 33] (H-A[Cit]EMQKARKST-NH2; lactam 3-6) | –
– | < 30 | – | CSCC[C@@H]1NC(=O)[C@@H](NC(=O)[C@H](CCCNC(=N)N)NC(=O)[C@H](C)N)CCCCn2cc(nn2)C[C@@H](C(=O)N[C@@H](C)C(=O)N[C@@H](CCCNC(=N)N)C(=O)N[C@@H](CCCCN)C(=O)N[C@@H](CO)C(=O)N[C@H](C(N)=O)[C@@H](C)O)NC(=O)[C@H](CCC(N)=O)NC1=O [Peptide 35, ARK^azdMQG^prgARKST-NH2] | inhibition of LSD1 (in words) [1]: weak competitive inhibitors; Ki ([1]; read-out: Ki): > 100 µM
70 | 70 | 60 | CSCC[C@@H]1NC(=O)[C@@H](NC(=O)[C@H](CCCNC(=N)N)NC(=O)[C@H](C)N)Cc2cn(nn2)CCCC[C@@H](C(=O)N[C@@H](C)C(=O)N[C@@H](CCCNC(=N)N)C(=O)N[C@@H](CCCCN)C(=O)N[C@@H](CO)C(=O)N[C@H](C(N)=O)[C@@H](C)O)NC(=O)[C@H](CCC(N)=O)NC1=O [Peptide 36, ARG^prgMQK^azdARKST-NH2] | inhibition of LSD1 (in words) [1]: weak competitive inhibitors; Ki ([1]; read-out: Ki): 30 µM
